Measured values as given in patent US10544143B2, “4-azaindole compounds” (BRISTOL-MYERS SQUIBB COMPANY, priority 2017, dated 2020).
Read-outs that look alike come from different tables or passages of the source.

Assays:
human TLR9 = human TLR9 (Homo sapiens (Human), UniProt Q9NR96); assay: TLR9 inhibition reporter assay (HEK-Blue SEAP);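 further: SEAP driven by an IFN-β minimal promoter with NF-κB and AP-1 sites, read after 22 h, compounds dosed 0.05 nM–50 µM, inhibition scaled between agonist plus DMSO and reference-inhibitor wells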
human TLR7 = human TLR7 (Homo sapiens (Human), UniProt Q9NYK1); assay: TLR7 inhibition reporter assay (HEK-Blue SEAP); format: cell-based
human TLR8 = human TLR8 (Homo sapiens (Human), UniProt Q9NR97); assay: TLR8 inhibition reporter assay (HEK-Blue SEAP);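 further: SEAP driven by IFN-β minimal promoter carrying NF-κB and AP-1 sites, compounds dosed 0.05 nM to 50 µM for 22 h, inhibition scaled between agonist-plus-DMSO and reference-inhibitor wells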
[1] = read-out: TLR9 IC50, HEK-Blue cells overexpressing human TLR9, SEAP reporter, ODN2006 5 nM
[2] = HEK-Blue cells overexpressing human TLR7, SEAP reporter, gardiquimod 7.5 μM
[3] = read-out: TLR8 IC50, HEK-Blue cells overexpressing human TLR8, SEAP reporter, R848 15.9 μM
[4] = read-out: TLR9 IC50, HEK-Blue cells overexpressing human TLR9, ODN2006 5 nM stimulation, SEAP reporter
[5] = HEK-Blue cells overexpressing human TLR7, gardiquimod 7.5 μM stimulation, SEAP reporter
[6] = read-out: TLR8 IC50, HEK-Blue cells overexpressing human TLR8, R848 15.9 μM stimulation, SEAP reporter
[7] = HEK-Blue human TLR7 cells, gardiquimod 7.5 μM
[8] = read-out: TLR9 IC50, HEK-Blue human TLR9 cells, ODN2006 5 nM
[9] = read-out: TLR8 IC50, HEK-Blue human TLR8 cells, R848 15.9 μM

human TLR8, sequence (Q9NR97 27-1041): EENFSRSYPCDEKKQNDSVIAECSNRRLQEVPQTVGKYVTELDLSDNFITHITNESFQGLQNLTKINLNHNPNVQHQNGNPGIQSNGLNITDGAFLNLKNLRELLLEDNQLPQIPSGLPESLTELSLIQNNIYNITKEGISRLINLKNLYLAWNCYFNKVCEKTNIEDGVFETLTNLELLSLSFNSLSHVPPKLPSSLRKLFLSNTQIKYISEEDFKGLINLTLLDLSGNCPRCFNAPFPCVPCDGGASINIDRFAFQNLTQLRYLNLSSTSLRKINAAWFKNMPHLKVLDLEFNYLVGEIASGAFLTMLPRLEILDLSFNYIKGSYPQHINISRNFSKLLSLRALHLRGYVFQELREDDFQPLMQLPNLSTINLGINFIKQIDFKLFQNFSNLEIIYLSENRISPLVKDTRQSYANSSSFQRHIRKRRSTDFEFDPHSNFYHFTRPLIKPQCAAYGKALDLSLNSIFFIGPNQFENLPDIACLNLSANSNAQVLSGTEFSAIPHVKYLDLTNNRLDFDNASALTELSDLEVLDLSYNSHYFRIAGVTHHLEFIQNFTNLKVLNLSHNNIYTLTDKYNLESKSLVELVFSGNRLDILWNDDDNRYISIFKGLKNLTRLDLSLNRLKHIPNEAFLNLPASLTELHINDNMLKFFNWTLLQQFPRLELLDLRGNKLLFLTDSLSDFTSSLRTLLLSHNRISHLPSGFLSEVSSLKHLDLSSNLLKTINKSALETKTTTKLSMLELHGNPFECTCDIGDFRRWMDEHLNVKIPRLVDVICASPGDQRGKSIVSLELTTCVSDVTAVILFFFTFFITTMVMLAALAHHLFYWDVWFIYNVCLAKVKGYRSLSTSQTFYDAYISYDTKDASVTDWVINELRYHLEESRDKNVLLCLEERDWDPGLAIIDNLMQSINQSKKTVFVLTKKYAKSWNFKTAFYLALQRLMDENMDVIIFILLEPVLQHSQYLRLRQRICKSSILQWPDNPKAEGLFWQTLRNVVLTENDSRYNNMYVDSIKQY
human TLR7, sequence (Q9NYK1 27-1049): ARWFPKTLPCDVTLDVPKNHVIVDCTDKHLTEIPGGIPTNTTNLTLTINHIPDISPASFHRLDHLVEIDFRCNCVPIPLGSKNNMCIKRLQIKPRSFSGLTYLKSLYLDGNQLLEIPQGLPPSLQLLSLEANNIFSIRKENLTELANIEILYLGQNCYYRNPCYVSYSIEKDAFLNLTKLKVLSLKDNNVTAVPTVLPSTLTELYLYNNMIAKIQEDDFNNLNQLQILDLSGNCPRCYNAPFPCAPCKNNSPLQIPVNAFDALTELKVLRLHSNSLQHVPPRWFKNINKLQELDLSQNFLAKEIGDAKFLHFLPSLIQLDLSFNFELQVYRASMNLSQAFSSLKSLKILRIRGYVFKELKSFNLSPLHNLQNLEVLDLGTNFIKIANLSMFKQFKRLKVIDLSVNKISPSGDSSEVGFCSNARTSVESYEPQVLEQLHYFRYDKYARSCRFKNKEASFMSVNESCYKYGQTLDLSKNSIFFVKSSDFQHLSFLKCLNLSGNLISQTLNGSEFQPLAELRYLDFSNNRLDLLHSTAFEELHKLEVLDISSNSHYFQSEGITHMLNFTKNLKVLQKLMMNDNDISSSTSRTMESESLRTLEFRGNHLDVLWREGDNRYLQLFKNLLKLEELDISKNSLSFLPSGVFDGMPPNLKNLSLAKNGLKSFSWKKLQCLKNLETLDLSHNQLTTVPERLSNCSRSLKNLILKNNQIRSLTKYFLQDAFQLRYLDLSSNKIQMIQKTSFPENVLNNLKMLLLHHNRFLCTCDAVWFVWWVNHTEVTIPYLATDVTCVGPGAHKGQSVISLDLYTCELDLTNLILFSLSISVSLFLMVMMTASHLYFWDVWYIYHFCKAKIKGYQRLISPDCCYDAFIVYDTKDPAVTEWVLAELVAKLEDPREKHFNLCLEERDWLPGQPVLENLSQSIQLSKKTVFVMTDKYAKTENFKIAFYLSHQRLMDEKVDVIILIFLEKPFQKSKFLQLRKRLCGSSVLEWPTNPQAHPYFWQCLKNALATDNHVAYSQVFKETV
human TLR9, sequence (Q9NR96 26-1032): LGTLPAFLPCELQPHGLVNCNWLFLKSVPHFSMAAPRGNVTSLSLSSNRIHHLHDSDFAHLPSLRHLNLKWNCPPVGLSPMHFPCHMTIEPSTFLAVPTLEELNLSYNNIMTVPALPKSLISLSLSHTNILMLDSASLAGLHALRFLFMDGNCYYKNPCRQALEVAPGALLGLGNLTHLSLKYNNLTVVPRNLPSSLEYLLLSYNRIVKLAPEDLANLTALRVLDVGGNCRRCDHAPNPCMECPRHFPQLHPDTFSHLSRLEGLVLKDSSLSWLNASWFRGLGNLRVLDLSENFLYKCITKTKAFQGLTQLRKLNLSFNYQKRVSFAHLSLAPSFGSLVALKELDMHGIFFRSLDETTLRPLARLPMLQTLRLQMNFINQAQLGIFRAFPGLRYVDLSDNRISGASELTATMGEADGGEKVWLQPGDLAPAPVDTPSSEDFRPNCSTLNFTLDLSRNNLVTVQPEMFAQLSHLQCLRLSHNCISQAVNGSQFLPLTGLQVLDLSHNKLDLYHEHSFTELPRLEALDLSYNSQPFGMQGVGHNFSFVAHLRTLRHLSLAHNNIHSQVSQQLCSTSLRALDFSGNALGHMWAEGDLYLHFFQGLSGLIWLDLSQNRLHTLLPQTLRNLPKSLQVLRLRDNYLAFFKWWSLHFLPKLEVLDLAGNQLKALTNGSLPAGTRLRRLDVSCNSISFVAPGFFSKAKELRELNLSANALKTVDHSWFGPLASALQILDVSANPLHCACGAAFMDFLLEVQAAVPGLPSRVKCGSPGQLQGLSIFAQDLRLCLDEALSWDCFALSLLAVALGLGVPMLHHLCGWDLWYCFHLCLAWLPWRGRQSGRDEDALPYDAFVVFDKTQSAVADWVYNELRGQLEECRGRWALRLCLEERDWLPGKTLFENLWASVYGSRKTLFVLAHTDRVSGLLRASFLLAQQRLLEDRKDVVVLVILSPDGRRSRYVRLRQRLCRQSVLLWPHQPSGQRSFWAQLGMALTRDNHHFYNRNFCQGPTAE

Row | SMILES | IC50 (human TLR9; [1]) [µM] | IC50 (human TLR7; [2]) [µM] | IC50 (human TLR8; [3]) [µM] | IC50 (human TLR9; [4]) [µM] | IC50 (human TLR7; [5]) [µM] | IC50 (human TLR8; [6]) [µM] | further results
1 | COc1cc(-c2[nH]c3ccc(C4CCC(NCC5(C)COC5)C4)nc3c2C(C)C)cn2ncnc12 (stereo not drawn) [Example 718] | 6.21 | 0.0096 | 0.0036 | – | – | – | –
2 | COc1cc(-c2[nH]c3ccc(C4CCC(N(CC#N)CC#N)C4)nc3c2C(C)C)cn2ncnc12 (stereo not drawn) [Example 713] | 4.88 | 0.0062 | 0.028 | – | – | – | –
3 | Cc1c(-c2[nH]c3ccc(C4CCC(NC5COC5)CC4)nc3c2C(C)C)cn2cnnc2c1C (stereo not drawn) [Example 233] | – | – | – | 2.66 | 0.011 | 0.024 | –
4 | Cc1c(-c2[nH]c3ccc(CCC4CN(C(=O)CN(C)C)C4)nc3c2C(C)C)cn2ncnc2c1C [Example 685] | 1.58 | 0.032 | 0.039 | – | – | – | –
5 | COc1cc(-c2[nH]c3ccc(C4CCC(N(CC(N)=O)CC(N)=O)C4)nc3c2C(C)C)cn2ncnc12 (stereo not drawn) [Example 708] | > 50 | 0.012 | 0.28 | – | – | – | –
6 | [2H]C([2H])([2H])N(C([2H])([2H])[2H])C([2H])([2H])C(=O)N1CCN(c2ccc3[nH]c(-c4cn5ncnc5c(C)c4C)c(C(C)C)c3n2)CC1 (single isomer, unassigned) [Example 888] | – | – | – | – | – | – | IC50 (human TLR9; TLR9 IC50, HEK-Blue human TLR9 cells, ODN2006 5 nM): 12.2 µM; IC50 (human TLR7; [7]): 0.0012 µM; IC50 (human TLR8; TLR8 IC50, HEK-Blue human TLR8 cells, R848 15.9 μM): 0.00059 µM
7 | Cc1c(-c2[nH]c3ccc(N4CCN(C(=O)CN(C(C)C)C(C)C)CC4)nc3c2C(C)C)cn2ncnc2c1C [Example 883] | – | – | – | – | – | – | IC50 (human TLR9; [8]): 12.5 µM; IC50 (human TLR7; [7]): 0.0074 µM; IC50 (human TLR8; [9]): 0.0023 µM
8 | Cc1c(-c2[nH]c3ccc(N4CCNC(=O)C4)nc3c2C(C)C)cn2ncnc2c1C [Example 150] | – | – | – | > 50 | 0.012 | 0.0027 | –
9 | Cc1c(-c2[nH]c3ccc(C4CC(N(C)CCS(C)(=O)=O)C4)nc3c2C(C)C)cn2ncnc2c1C (stereo not drawn) [Example 621] | 14.7 | 0.007 | 0.0075 | – | – | – | –
10 | COc1cc(-c2[nH]c3cc(C)c(C4CCC(N(C)CCC#N)CC4)nc3c2C(C)C)cn2ncnc12 (stereo not drawn) [Example 339] | – | – | – | 5.89 | 0.0002 | 0.0071 | –
11 | Cc1cc(-c2[nH]c3cc(F)c(C4CCN(CCS(C)(=O)=O)CC4)nc3c2C(C)C)cn2ncnc12 [Example 582] | 7.46 | 0.00099 | 0.012 | – | – | – | –
12 | COc1cc(-c2[nH]c3ccc(N4CCN(C5CCC5)CC4)nc3c2C(C)C)cn2ncnc12 [Example 108] | – | – | – | 3.51 | 0.0025 | 0.00099 | –
13 | Cc1c(-c2[nH]c3ccc(N4CCN(C(=O)C5CN(C)C5)C[C@@H]4C)nc3c2C(C)C)cn2ncnc2c1C [Example 829] | – | – | – | – | – | – | IC50 (human TLR9; [8]): 17.3 µM; IC50 (human TLR7; [7]): 0.0037 µM; IC50 (human TLR8; [9]): 0.012 µM
14 | CCn1cc(-c2[nH]c3ccc(C4CCC(O)CC4)nc3c2C(C)C)c2cccnc21 (stereo not drawn) [Example 293] | – | – | – | 5.64 | 0.075 | 0.208 | –
15 | CCN(CC(=O)N1CCN(c2ccc3[nH]c(-c4cn5ncnc5c(C)c4C)c(C(C)C)c3n2)CC1)C(C)C [Example 879] | – | – | – | – | – | – | IC50 (human TLR9; [8]): 7.55 µM; IC50 (human TLR7; [7]): 0.001 µM; IC50 (human TLR8; [9]): 0.0034 µM
16 | COc1cc(-c2[nH]c3ccc(N4CCN(Cc5cn(C)nn5)CC4)nc3c2C(C)C)cn2ncnc12 [Example 129] | – | – | – | 22.8 | 0.0067 | 0.0013 | –
17 | COc1cc(-c2[nH]c3ccc(N4CCN(CC5CCOC5)CC4)nc3c2C(C)C)cn2ncnc12 (stereo not drawn) [Example 107] | – | – | – | 5.63 | 0.0022 | 0.00037 | –
18 | Cc1c(-c2[nH]c3ccc(C4CCC(NC(C)(C)C)CC4)nc3c2C(C)C)cn2ncnc2c1C (stereo not drawn) [Example 1056] | – | – | – | – | – | – | IC50 (human TLR9; [8]): 2.99 µM; IC50 (human TLR7; [7]): 0.0021 µM; IC50 (human TLR8; [9]): 0.0012 µM
19 | Cc1c(-c2[nH]c3ccc(N4CCN(C5CCOC5)C[C@@H]4C)nc3c2C(C)C)cn2ncnc2c1C (stereo partly drawn) [Example 814] | – | – | – | – | – | – | IC50 (human TLR9; [8]): > 50 µM; IC50 (human TLR7; [7]): 0.0019 µM; IC50 (human TLR8; [9]): 0.0023 µM

Row | SMILES | IC50 (human TLR9; [1]) [µM] | IC50 (human TLR7; [2]) [µM] | IC50 (human TLR8; [3]) [µM] | IC50 (human TLR9; [4]) [µM] | IC50 (human TLR7; [5]) [µM] | IC50 (human TLR8; [6]) [µM] | further results
20 | Cc1cc(-c2[nH]c3ccc(C4CCN(C5CCOCC5)CC4)nc3c2C(C)C)cn(C)c1=O [Example 527] | 1.16 | 0.0073 | 0.003 | – | – | – | –
21 | Cc1c(-c2[nH]c3ccc(N4CCN(C(=O)CN(C)C)C[C@@H]4C)nc3c2C(C)C)cn2ncnc2c1C [Example 801] | – | – | – | – | – | – | IC50 (human TLR9; [8]): 11 µM; IC50 (human TLR7; [7]): 0.00057 µM; IC50 (human TLR8; [9]): 0.00056 µM
22 | CC(C)c1c(-c2cn(C)c3ncccc23)[nH]c2ccc(C3CCC(NCC(C)(C)S(C)(=O)=O)CC3)nc12 (stereo not drawn) [Example 285] | – | – | – | 2.31 | 0.0036 | 0.0055 | –
23 | COCCN(C)C1CCC(c2ccc3[nH]c(-c4cc(OC)c5ncnn5c4)c(C(C)C)c3n2)CC1 (stereo not drawn) [Example 198] | – | – | – | 1.14 | 0.001 | 0.0078 | –
24 | Cc1c(-c2[nH]c3ccc(C4CCC(N5CC(C)(C)C5)CC4)nc3c2C(C)C)cn2ncnc2c1C (stereo not drawn) [Example 1052] | – | – | – | – | – | – | IC50 (human TLR9; [8]): 5.92 µM; IC50 (human TLR7; [7]): 0.0089 µM; IC50 (human TLR8; [9]): 0.017 µM
25 | Cc1c(-c2[nH]c3ccc(C4CCN(C5COC5)CC4)nc3c2C(C)C)cn(C)c(=O)c1Cl [Example 566] | 19 | 0.024 | 0.018 | – | – | – | –
26 | COc1cc(-c2[nH]c3ccc(CCC4CN(CC(C)(C)O)C4)nc3c2C(C)C)cn2ncnc12 [Example 693] | 0.437 | 0.0065 | 0.015 | – | – | – | –
27 | COc1cc(-c2[nH]c3ccc(C4CCC(NCC(=O)N(C)C)CC4)nc3c2C(C)C)cn2ncnc12 (stereo not drawn) [Example 232] | – | – | – | 0.484 | 0.003 | 0.0098 | –
28 | CC(C)c1c(-c2cc(CO)c3ncnn3c2)[nH]c2ccc(N3CCC(N)CC3)nc12 [Example 79] | – | – | – | 9.72 | 0.373 | 0.355 | –
29 | Cc1c(-c2[nH]c3ccc(C4CCC(NC5CC5)CC4)nc3c2C(C)C)cn2ncnc2c1C (stereo not drawn) [Example 426] | 1.4 | 0.0025 | 0.0026 | – | – | – | –
30 | Cc1c(-c2[nH]c3ccc(C4CCC(N(C)C(=O)CN(C)C)CC4)nc3c2C(C)C)cn2ncnc2c1C (stereo not drawn) [Example 396] | 1.53 | 0.0017 | 0.017 | – | – | – | –
31 | Cc1c(-c2[nH]c3ccc(C4CCC(N(C)C(C)C)CC4)nc3c2C(C)C)cn2ncnc2c1C (stereo not drawn) [Example 364] | – | – | – | 2.52 | 0.0015 | 0.0096 | –
32 | Cc1cc(-c2[nH]c3ccc(C4CCC(N(C)C5COC5)CC4)nc3c2C(C)C)cn(C)c1=O (stereo not drawn) [Example 250] | – | – | – | 13.7 | 0.026 | 0.057 | –
33 | CC(C)c1c(-c2cn(CCS(C)(=O)=O)c3ncccc23)[nH]c2ccc(C3CCC(NCC4(S(C)(=O)=O)CC4)CC3)nc12 (stereo not drawn) [Example 259] | – | – | – | 0.321 | 0.019 | 0.0071 | –
34 | Cc1c(-c2[nH]c3ccc(N4CCN(C(=O)CN5CCCC5)C[C@H]4C)nc3c2C(C)C)cn2ncnc2c1C [Example 835] | – | – | – | – | – | – | IC50 (human TLR9; [8]): 5.56 µM; IC50 (human TLR7; [7]): 0.0007 µM; IC50 (human TLR8; [9]): 0.0041 µM
35 | Cc1c(-c2[nH]c3ccc(CCC4CN(CCS(C)(=O)=O)C4)nc3c2C(C)C)cn2ncnc2c1C [Example 695] | 3.95 | 0.042 | 0.02 | – | – | – | –
36 | Cc1c(-c2[nH]c3ccc(N4CCN(C)CC4)nc3c2C(C)C)cn2ncnc2c1C [Example 96, 6-(3-isopropyl-5-(4-methylpiperazin-1-yl)-1H-pyrrolo[3,2-b]pyridin-2-yl)-7,8-dimethyl-[1,2,4]triazolo[1,5-a]pyridine] | – | – | – | 9.43 | 0.0015 | 0.00028 | –
37 | CC(C)c1c(-c2cn(C)c3ncccc23)[nH]c2ccc(C3CCC(NCC(=O)N(C)C)CC3)nc12 (stereo not drawn) [Example 182] | – | – | – | 0.301 | 0.00048 | 0.0011 | –
